According to ChEMBL document CHEMBL5214937, “Comparative analysis of p-terphenylquinone and seriniquinone derivatives as reactive oxygen species-modulating agents” (Bioorg Med Chem Lett, 2022):
The source made the active and inactive calls. No cut-off for these calls is given here.

Assays:
B16 = experiment: Antiproliferative activity against mouse B16 cells assessed as inhibition of cell growth incubated for 48 hrs by CCK-8 assay; format: functional, cell-based; settings: B16, 48 h
HL-60 [1] = experiment: Induction of ROS generation in human HL-60 cells assessed as fold increase in intracellular ROS level at 6.25 uM incubated for 3 hrs by NBT reduction assay relative to control; format: functional
HL-60 [2] = experiment: Antiproliferative activity against human HL-60 cells assessed as reduction in cell viability at 12.5 uM incubated for 48 hrs by CCK-8 assay relative to control; format: functional
HL-60 [3] = experiment: Antiproliferative activity against human HL-60 cells assessed as inhibition of cell growth incubated for 48 hrs by CCK-8 assay; format: functional, cell-based; settings: HL-60, 48 h
HL-60 [4] = experiment: Induction of cell morphological changes in human HL-60 cells assessed as appearance of apoptotic bodies at 3 uM incubated for 48 hrs by Hoechst 33342 staining based microscopic analysis; format: functional
HL-60 [5] = experiment: Induction of cell morphological changes in human HL-60 cells assessed as chromatin condensation at 3 uM incubated for 48 hrs by Hoechst 33342 staining based microscopic analysis; format: functional
HL-60 [6] = experiment: Induction of ROS generation in human HL-60 cells assessed as increase in extracellular ROS level at 6.25 uM incubated for 3 hrs by NBT reduction assay; format: functional, cell-based

| SMILES | IC50 (B16) | fold change (FC) (HL-60 [1]) | Activity (HL-60 [2]) | IC50 (HL-60 [3]) | Activity (HL-60 [4]) | Activity (HL-60 [5]) | Activity (HL-60 [6]) |
| --- | --- | --- | --- | --- | --- | --- | --- |
| O=c1c2ccccc2c(=O)c2c1sc1c(=O)c3ccccc3c(=O)c12 | 2380 nM | >4 | <10% | 1730 nM | Active | Active |  |
| COC1=C(c2ccccc2)C(=O)C(OC)=C(c2ccccc2)C1=O [BETULINAN A] |  |  |  | 5910 nM |  |  |  |
| O=C1C(O)=C(c2ccccc2)C(=O)C(O)=C1c1ccccc1 |  |  |  | > 25000 nM |  |  |  |
| O=c1c2ccccc2c(=O)c2c1oc1c(=O)c3ccccc3c(=O)c12 | 180 nM | >4 | <10% | 70 nM | Active | Active |  |
| COc1ccc2c(=O)c3sc4c(=O)c5ccc(OC)cc5c(=O)c4c3c(=O)c2c1 |  |  | 31.8% |  |  |  |  |
| O=C1C(OC(=O)c2ccccc2)=C(c2ccc(O)cc2)C(=O)C(OC(=O)c2ccccc2)=C1c1ccc(O)cc1 |  |  |  | > 25000 nM |  |  |  |
| O=c1c2ccccc2c(=O)c2c1[se]c1c(=O)c3ccccc3c(=O)c12 | 2830 nM | >4 | <10% | 2910 nM | Active | Active |  |
| COC1=C(c2ccc(O)cc2)C(=O)C(OC)=C(c2ccc(O)cc2)C1=O |  |  |  | > 25000 nM |  |  |  |
| O=c1c(=O)c2c(oc3c(=O)c4ccccc4c(=O)c32)c2ccccc12 | 2950 nM | >4 | <10% | 1570 nM | Active | Active | Active |
| COc1ccc(C2=C(O)C(=O)C(c3ccc(OC)cc3)=C(O)C2=O)cc1 |  |  |  | > 25000 nM |  |  |  |
| O=C1C(O)=C(c2ccc(O)cc2)C(=O)C(O)=C1c1ccc(O)cc1 |  |  |  | 5710 nM |  |  |  |
| COc1ccc2c(=O)c3oc4c5cc(OC)ccc5c(=O)c(=O)c4c3c(=O)c2c1 |  |  | 11% |  |  |  |  |
| COC1=C(c2ccc(OC)cc2)C(=O)C(OC)=C(c2ccc(OC)cc2)C1=O |  |  |  | > 25000 nM |  |  |  |
| COc1ccc2c(=O)c3c(oc4c5ccc(OC)cc5c(=O)c(=O)c43)c(=O)c2c1 |  |  | 74% |  |  |  |  |
